# Data from patent US7462598B2, “Antimicrobial theta defensins, analogs thereof, and methods of use” (priority 2002, dated 2008).
# Bridge positions count the residues as written; N and C are the ends. Peptide text beside a SMILES is read from it.
# How the values were obtained:
# C. albicans 16820 = experiment: Cell-suspension microbicidal assay (MMC); format: cell-based, Candida albicans; conditions: lowest concentration that reduced cell viability by 99.9%; 10 mM PIPES, 5 mM glucose, pH 7.4; 2 h 37° C.
# In short: (§1)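 Log-phase microbes (2×10^6 CFU/ml) exposed to two-fold peptide dilutions (0.062-8.0 μg/ml) in 10 mM PIPES, 5 mM glucose, pH 7.4, 2 h at 37 °C, then diluted 1:10 to 1:10^6 in broth and grown 24-48 h. MMC is the lowest concentration giving ≥99.9% killing (no pellet at 1:10^3).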
# [1] = system: S. aureus 502a, E. coli ML35, and C. albicans 16820; experiment: Cell-suspension microbicidal assay, statements across the test organisms (lowest MMC, overall ranges); format: cell-based
# In short: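 Log-phase organisms (2×10^6 CFU/ml) were exposed for 2 h at 37° C. to peptide (0.062–8.0 μg/ml final) in 10 mM PIPES/5 mM glucose, pH 7.4, then serially diluted in broth and grown 24–48 h. MMC was defined as ≥99.9% killing (no pellet at 1:10^3). SI was calculated as concentration giving 3% hemolysis in PBS divided by lowest MMC.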
# E. coli ML35 [2] = experiment: Agar diffusion assay; format: cell-based, Escherichia coli; conditions: diameter of clearing, FIG. 3
# Experimental: Briefly, 10-μl wells were bored in a 9-cm^2 plate of agarose, buffered with 10 mM 1,4-piperazinebis(ethanesulfonic acid) (PIPES), pH 7.4, containing 5 mM glucose, and seeded with 1×10^6 mid-log phase cells. Five-μl aliquots of peptides, dissolved in 0.01% HOAc at 10-300 μg/ml, were added to each well. After incubation at 37° C. for 2 h, the seeded agar was overlaid with molten agarose containing 6% trypticase soy broth (for bacteria) or Sabouraud dextrose broth (for fungi). Plates were incubated at 37° C. for 18-24 h, and antimicrobial activity was determined by measuring the diameter of clearing around each well.
# E. coli ML35 [3] = experiment: Cell-suspension microbicidal assay (MMC); format: cell-based, Escherichia coli; conditions: lowest concentration that reduced cell viability by 99.9%; 10 mM PIPES, 5 mM glucose, pH 7.4; 2 h 37° C.
# In short: as §1
# E. coli ML35 [4] = experiment: Microbicidal assay by colony counting (Example I); format: cell-based, Escherichia coli
# Experimental: The limit of detection (1 colony per plate) was equal to 1×10^3 CFU/ml in the incubation mixture.
# Microbicidal activity of each peptide was determined by incubating 2×10^6 CFU/ml with peptides (0.5-12 μg/ml) in 50 μl of 10 mM PIPES buffer containing 5 mM glucose, pH 7.4. […] After 37° C. incubation for 18-48 h, colonies were counted and cell survival was expressed as CFU/ml.
# S. aureus 502a = experiment: Cell-suspension microbicidal assay (MMC); format: cell-based, Staphylococcus aureus; conditions: lowest concentration that reduced cell viability by 99.9%; 10 mM PIPES, 5 mM glucose, pH 7.4; 2 h 37° C.
# In short: as §1
# E. coli ML35 [5] = experiment: Membrane permeabilization assay (ONPG hydrolysis); format: cell-based, Escherichia coli; conditions: rates at 1 μg/ml concentration of each peptide
# In short: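 ONPG hydrolysis by log-phase E. coli ML35 (1×10^6 CFU/ml) in 10 mM PIPES pH 7.4 with 3 mM ONPG, peptides at 0-8.0 μg/ml final; A405 followed for 60 min. Control: 0-4 μg/ml peptide incubated with recombinant β-galactosidase and 3 mM ONPG.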
# [6] = biological target: T1, recombinant β-galactosidase (Escherichia coli, UniProt P00722); experiment: Inhibition of purified β-galactosidase (ONPG hydrolysis); format: biochemical; conditions: 4 μg/ml, the highest peptide concentration tested; 10 nM enzyme
# T1 construct: gift from Dr. Donald P. Satchell, University of California, Irvine, Department of Pathology
# T1 sequence (P00722 2-1024): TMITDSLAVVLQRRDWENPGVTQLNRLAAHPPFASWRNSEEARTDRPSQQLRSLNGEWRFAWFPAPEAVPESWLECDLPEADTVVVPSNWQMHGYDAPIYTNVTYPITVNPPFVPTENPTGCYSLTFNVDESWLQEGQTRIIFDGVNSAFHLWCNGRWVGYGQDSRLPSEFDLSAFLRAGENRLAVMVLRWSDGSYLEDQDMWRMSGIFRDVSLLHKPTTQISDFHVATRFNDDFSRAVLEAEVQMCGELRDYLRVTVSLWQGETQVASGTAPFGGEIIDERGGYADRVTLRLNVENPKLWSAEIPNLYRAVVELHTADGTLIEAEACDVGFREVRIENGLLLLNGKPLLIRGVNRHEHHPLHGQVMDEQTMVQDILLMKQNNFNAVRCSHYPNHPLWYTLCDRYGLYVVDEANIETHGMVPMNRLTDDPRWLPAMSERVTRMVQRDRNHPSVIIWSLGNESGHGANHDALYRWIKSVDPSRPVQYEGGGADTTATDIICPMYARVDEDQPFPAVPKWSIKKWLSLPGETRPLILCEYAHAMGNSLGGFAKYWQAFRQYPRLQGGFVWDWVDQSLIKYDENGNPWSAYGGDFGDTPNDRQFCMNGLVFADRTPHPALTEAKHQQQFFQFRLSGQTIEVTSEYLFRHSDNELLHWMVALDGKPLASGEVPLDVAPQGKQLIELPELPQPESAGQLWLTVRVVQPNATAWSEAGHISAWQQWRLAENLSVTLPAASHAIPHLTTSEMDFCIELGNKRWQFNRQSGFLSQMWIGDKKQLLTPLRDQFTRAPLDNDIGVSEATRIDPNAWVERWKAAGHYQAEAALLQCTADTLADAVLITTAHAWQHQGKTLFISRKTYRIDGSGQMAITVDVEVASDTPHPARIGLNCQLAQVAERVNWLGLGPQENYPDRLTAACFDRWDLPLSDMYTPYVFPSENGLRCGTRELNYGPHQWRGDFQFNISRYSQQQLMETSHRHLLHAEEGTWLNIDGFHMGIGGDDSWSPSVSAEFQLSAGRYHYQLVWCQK
# Experimental: Dose-dependent rates of ONPG hydrolysis were determined using 10 nM of purified β-galactosidase.
# The effect of each peptide on β-galactosidase-dependent ONPG hydrolysis was determined by incubating 0-4 μg/ml of each peptide with recombinant β-galactosidase (a gift from Dr. Donald P. Satchell, University of California, Irvine, Department of Pathology) and 3 mM ONPG as described above.
smiles,measurement,setting,value
"CC(C)C[C@@H]1NC(=O)[C@@H]2CSSC[C@H](NC(=O)[C@H](CCCNC(=N)N)NC(=O)[C@@H]3CSSC[C@H](NC1=O)C(=O)N[C@@H](CCCNC(=N)N)C(=O)N[C@@H](CCCNC(=N)N)C(=O)NCC(=O)N[C@@H](C(C)C)C(=O)N3)C(=O)N[C@@H](CC(C)C)C(=O)N[C@H]1CSSC[C@H](NC(=O)[C@H](C(C)C)NC(=O)CNC(=O)[C@H](CCCNC(=N)N)NC(=O)[C@H](CCCNC(=N)N)NC1=O)C(=O)N[C@@H](CCCNC(=N)N)C(=O)N2 [RTD-3] (cyclo(CLCRRGVCRCLCRRGVCR); disulfide 1-10, 3-8, 12-17)","MMC, C. albicans",C. albicans 16820,1.0 µg/mL
same,"MMC, range over the test organisms","[1]; S. aureus, E. coli and C. albicans, 10 mM PIPES, 5 mM glucose, pH 7.4",1 to 2 µg/mL
same,M,"[1]; peptide concentration that kill 99.9% of either S. aureus, E. coli, or C. albicans, lowest MMC value",1 µg/mL
same,fold less active than RTD-1 and RTD-2 against E. coli,E. coli ML35 [2],2- to 3 fold
same,"MMC, E. coli",E. coli ML35 [3],2.0 µg/mL
same,amount of peptide required to achieve the microbicidal effect of RTD-1 and 2,"E. coli ML35 [4]; killing of E. coli, 2 h",approximately twice as much of the peptide was required
same,activity against E. coli compared with RTD-1 and -2,E. coli ML35 [4]; longer incubation times (4 or 6 h),nearly equivalent
same,"MMC, S. aureus",S. aureus 502a,1.0 µg/mL
same,ONPG hydrolysis,E. coli ML35 [5],9.2 (A405/sec) · 10^−5
same,reduction of ONPG hydrolysis by purified β-galactosidase,[6],50%
